According to patent publication EP3807270B1, “NOVEL HETEROARYL HETEROCYCLYL COMPOUNDS FOR THE TREATMENT OF AUTOIMMUNE DISEASE” (F. Hoffmann-La Roche AG, priority 2018, dated 2019):

Experiments:
CYP2D6 = molecular target: T1, CYP2D6 (Homo sapiens, UniProt P10635); assay: CYP inhibition assay in human liver microsome; type: in vitro ADME; details: human liver microsomes, probe dextromethorphan, 10µM test compound, dextromethorphan substrate, <0: not or weak inhibitor, read-out: CYP 2D6 inhibition %@10µM
T1 construct: tissue BD-Gentest 452117; host or cells: human liver microsomes
Outline: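 HLM mixed with CYP2D6 substrate, preincubated 10 min at 37 °C, started with NADPH regenerating system and run 10 min at 37 °C before acetonitrile quench. Metabolite measured by RapidFire MS/MS against D3-dextrorphan internal standard. % inhibition scaled between DMSO and concentrated-inhibitor controls.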

hTLR7 = molecular target: T2, hTLR7 (Homo sapiens, UniProt Q9NYK1); assay: HEK293-Blue-hTLR-7 cells assay (SEAP reporter, R848 stimulation); type: cell-based; set-up: host or cells: HEK293 (HEK-Blue); details: HEK293-Blue-hTLR7 cells, R848, 20 hrs; read-out: HEK/hTLR7 IC50
T2 sequence (Q9NYK1 27-1049): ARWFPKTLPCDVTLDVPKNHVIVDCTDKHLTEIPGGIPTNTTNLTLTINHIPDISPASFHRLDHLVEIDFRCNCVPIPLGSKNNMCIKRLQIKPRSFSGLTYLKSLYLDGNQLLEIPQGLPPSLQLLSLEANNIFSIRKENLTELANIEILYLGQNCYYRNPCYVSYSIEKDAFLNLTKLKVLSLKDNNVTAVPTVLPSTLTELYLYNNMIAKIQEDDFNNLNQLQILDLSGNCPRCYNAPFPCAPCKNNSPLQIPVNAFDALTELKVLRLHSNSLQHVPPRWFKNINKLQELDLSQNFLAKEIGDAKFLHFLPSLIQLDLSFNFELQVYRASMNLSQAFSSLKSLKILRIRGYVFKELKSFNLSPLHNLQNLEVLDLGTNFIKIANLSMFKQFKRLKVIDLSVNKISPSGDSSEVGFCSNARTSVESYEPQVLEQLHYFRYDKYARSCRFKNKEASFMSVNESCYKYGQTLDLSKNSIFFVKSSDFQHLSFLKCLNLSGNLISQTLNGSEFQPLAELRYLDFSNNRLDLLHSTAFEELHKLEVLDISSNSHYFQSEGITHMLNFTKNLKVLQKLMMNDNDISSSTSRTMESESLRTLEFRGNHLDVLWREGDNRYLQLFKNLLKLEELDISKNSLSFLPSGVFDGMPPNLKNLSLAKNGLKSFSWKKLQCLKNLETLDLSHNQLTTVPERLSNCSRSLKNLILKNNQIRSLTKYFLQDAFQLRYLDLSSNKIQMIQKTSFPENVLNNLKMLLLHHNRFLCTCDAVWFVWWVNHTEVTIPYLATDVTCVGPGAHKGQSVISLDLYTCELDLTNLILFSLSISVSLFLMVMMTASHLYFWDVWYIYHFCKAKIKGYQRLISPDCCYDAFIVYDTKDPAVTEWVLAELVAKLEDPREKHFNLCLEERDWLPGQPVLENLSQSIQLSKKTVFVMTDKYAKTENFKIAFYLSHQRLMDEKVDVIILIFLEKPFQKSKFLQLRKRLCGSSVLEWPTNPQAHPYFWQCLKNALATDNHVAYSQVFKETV
Outline: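 HEK293-Blue cells stably expressing human TLR7 with an NF-κB/AP-1-driven SEAP reporter were treated with serially diluted compound (1% DMSO final) plus R848 for 20 h at 37 °C. Supernatant SEAP activity was measured with QUANTI-Blue substrate after 2 h at 37 °C, with absorbance read at 620-655 nm.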

T1 sequence (P10635 whole entry): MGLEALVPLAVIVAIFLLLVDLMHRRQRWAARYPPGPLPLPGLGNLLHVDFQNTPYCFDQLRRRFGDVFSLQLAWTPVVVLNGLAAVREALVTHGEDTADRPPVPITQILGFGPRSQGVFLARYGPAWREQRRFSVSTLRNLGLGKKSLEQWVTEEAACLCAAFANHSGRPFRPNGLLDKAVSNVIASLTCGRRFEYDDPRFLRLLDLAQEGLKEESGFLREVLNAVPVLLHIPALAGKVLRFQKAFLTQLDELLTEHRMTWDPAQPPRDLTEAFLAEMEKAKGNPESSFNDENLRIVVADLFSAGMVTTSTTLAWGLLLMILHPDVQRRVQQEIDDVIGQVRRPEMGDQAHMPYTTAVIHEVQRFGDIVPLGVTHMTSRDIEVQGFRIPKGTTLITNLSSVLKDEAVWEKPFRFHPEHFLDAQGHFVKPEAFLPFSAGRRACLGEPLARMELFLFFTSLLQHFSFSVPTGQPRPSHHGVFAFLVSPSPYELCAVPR

SMILES	inhibition at 10 min, 10 µM (CYP2D6)	IC50 (hTLR7)
C[C@@H]1CN(c2ccc(C#N)c3ncccc23)C[C@H](CN2CC3(C2)CN(c2cc4c(cn2)CCNC4)CCO3)O1 [Example 48, 5-[(2R,6S)-2-methyl-6-[[8-(5,6,7,8-tetrahydro-2,6-naphthyridin-3-yl)-5-oxa-2,8-diazaspiro[3.5]nonan-2-yl]methyl]morpholin-4-yl]quinoline-8-carbonitrile]	-12%	0.005 µM
C[C@@H]1CN(c2ccc(C#N)c3ncccc23)C[C@H](CN2CC3(C2)CN(c2ccc4c(n2)CCNC4)CCO3)O1 [Example 49, 5-[(2R,6S)-2-methyl-6-[[8-(5,6,7,8-tetrahydro-1,6-naphthyridin-2-yl)-5-oxa-2,8-diazaspiro[3.5]nonan-2-yl]methyl]morpholin-4-yl]quinoline-8-carbonitrile]	22%	0.005 µM
C[C@@H]1CN(c2ccc(C#N)c3ncccc23)C[C@H](CN2CC3(C2)CN(c2cnc4c(n2)CCNC4)CCO3)O1 [Example 50, 5-[(2R,6S)-2-methyl-6-[[8-(5,6,7,8-tetrahydropyrido[3,4-b]pyrazin-2-yl)-5-oxa-2,8-diazaspiro [3.5]nonan-2-yl]methyl]morpholin-4-yl] quinoline-8-carbonitrile]	10.5%	0.004 µM
C[C@@H]1CN(c2ccc(C#N)c3ncccc23)C[C@H](CN2CCC(Nc3ncc4c(n3)CCNC4)C2)O1 (stereo partly drawn) [Example 57, 5-[(2R,6S)-2-methyl-6-[[3-(5,6,7,8-tetrahydropyrido [4,3-d]pyrimidin-2-ylamino)pyrrolidin-1-yl]methyl]morpholin-4-yl] quinoline-8-carbonitrile]	-8%	0.02 µM
COC1CNCc2ccc(N3CCN(C[C@H]4CN(c5ccc(C#N)c6ncccc56)C[C@@H](C)O4)CC3)cc21 (stereo partly drawn) [Example 58, 5-[(2S,6R)-2-[[4-(4-methoxy-1,2,3,4-tetrahydroisoquinolin-6-yl)piperazin-1-yl]methyl]-6-methyl-morpholin-4-yl]quinoline-8-carbonitrile]	13%	0.016 µM
C[C@@H]1CN(c2ccc(C#N)c3nccnc23)C[C@H](CN2CCN(c3cc4c(cn3)CCNC4)CC2)O1 [Example 80, 8-[(2R,6S)-2-methyl-6-[[4-(5,6,7,8-tetrahydro-2,6-naphthyridin-3-yl)piperazin-1-yl]methyl]morpholin-4-yl]quinoxaline-5-carbonitrile]	7%	0.008 µM

Results, then the compound that gave them:

inhibition at 10 min, 10 µM (CYP2D6)	IC50 (hTLR7)	SMILES
-21.5%	0.012 µM	C[C@@H]1CN(c2ccc(C#N)c3ncccc23)C[C@H](CN2CC3(C2)CN(c2cnc4c(c2)CNCC4)CCO3)O1 [Example 47, 5-[(2R,6S)-2-methyl-6-[[8-(5,6,7,8-tetrahydro-1,6-naphthyridin-3-yl)-5-oxa-2,8-diazaspiro[3.5]nonan-2-yl]methyl]morpholin-4-yl]quinoline-8-carbonitrile]
5%	< 0.003 µM	C[C@@H]1CN(c2ccc(C#N)c3ncccc23)C[C@H](CN2C[C@@H]3[C@@H](C2)OCCN3c2cnc3c(c2)CCNC3)O1 [Example 52, 5-[(2S,6R)-2-[[(4aR,7aR)-4-(5,6,7,8-tetrahydro-1,7-naphthyridin-3-yl)-2,3,4a,5,7,7a-hexahydropyrrolo[3,4-b][1,4]oxazin-6-yl]methyl]-6-methylmorpholin-4-yl]quinoline-8-carbonitrile]
-2.5%	0.012 µM	C[C@@H]1CN(c2ccc(C#N)c3ncccc23)C[C@H](CN2CCN(c3cnc4c(c3)CNCC4)C(C)(C)C2)O1 [Example 56, 5-[(2S,6R)-2-[[3,3-dimethyl-4-(5,6,7,8-tetrahydro-1,6-naphthyridin-3-yl)piperazin-1-yl]methyl]-6-methyl-morpholin-4-yl]quinoline-8-carbonitrile]
8.5%	0.012 µM	C[C@@H]1CN(c2ccc(C#N)c3ncccc23)C[C@H](CN2CCN(c3ccc4c(n3)CNCC4)CC2)O1 [Example 69, 5-[(2R,6S)-2-methyl-6-[[4-(5,6,7,8-tetrahydro-1,7-naphthyridin-2-yl)piperazin-1-yl]methyl]morpholin-4-yl]quinoline-8-carbonitrile]
